Laboratory results taken from patent publication US12202818B2, “Compounds and methods for CD73 modulation and indications therefor” (Opna Bio SA, priority 2020, dated 2025).

Tests used:
human CD73 = molecular target: T1, human CD73 (Homo sapiens, UniProt P21589); experiment: Inhibitor activity against CD73 in cell based assay (CD73 expressing CHO-K1 cells); conditions: CHO-K1 cells expressing human CD73, 150 μM AMP, 4 hours of incubation; read-out: CHO-K1 CELL_VARIANT: CD73 IC50
T1 construct: expressed in transfected cells
T1 sequence (P21589 27-549): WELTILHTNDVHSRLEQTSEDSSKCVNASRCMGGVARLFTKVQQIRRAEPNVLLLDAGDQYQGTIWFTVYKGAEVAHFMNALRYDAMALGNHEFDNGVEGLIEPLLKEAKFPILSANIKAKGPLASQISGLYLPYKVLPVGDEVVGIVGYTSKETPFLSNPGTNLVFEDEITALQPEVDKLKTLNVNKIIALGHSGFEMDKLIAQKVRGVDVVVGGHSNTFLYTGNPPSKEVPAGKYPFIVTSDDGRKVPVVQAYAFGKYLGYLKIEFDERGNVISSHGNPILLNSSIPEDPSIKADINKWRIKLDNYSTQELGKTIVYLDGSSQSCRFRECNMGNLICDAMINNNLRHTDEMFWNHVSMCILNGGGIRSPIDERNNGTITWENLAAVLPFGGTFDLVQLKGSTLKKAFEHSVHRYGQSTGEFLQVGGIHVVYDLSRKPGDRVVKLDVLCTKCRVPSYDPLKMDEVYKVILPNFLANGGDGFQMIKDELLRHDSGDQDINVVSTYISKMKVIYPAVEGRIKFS
Procedure, shortened: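 AMP (150 μM) was added alongside 8 titrated compound doses (maximum 10 μM, 1:3 steps) to CHO-K1 cells stably expressing human CD73. After 4 h, supernatant AMP was measured indirectly with CellTiter-Glo 2.0 plus 1 μM ATP (30 min, RT). % inhibition versus high and low controls was fitted nonlinearly for IC50.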

[1] = molecular target: T2, Human CD73 (amino acid residues 27-549) (Homo sapiens, UniProt P21589); experiment: CD73 enzymatic assay (luciferase-based indirect assay, CellTiter-Glo); format: biochemical; conditions: 0.4 nM CD73, 150 μM AMP, 1 hour at room temperature
T2 construct: Human CD73 (amino acid residues 27-549); His tag (N); made in house; host or cells: E. coli
T2 sequence (P21589 27-549): T1 sequence (P21589 27-549)
Procedure, shortened: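 Luciferase-coupled readout: AMP left after CD73 turnover suppresses CellTiter-Glo signal (1 μM ATP final, 30 min RT). Reaction beforehand: 150 μM AMP, 0.4 nM E. coli-made His-tagged CD73 residues 27-549, test compound, HEPES pH 7.4 with Tween-20, 1 h RT. % inhibition fitted nonlinearly for IC50.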

| IC50 (human CD73) [µM] | IC50 [1] [µM] | SMILES |
| --- | --- | --- |
| 0.001 to 10 | 0.001 to 10 | Cc1noc(C)c1-c1cc(O[C@@H]2CCN(c3cnn(CCO)c(=O)c3Cl)C2)ncn1 [P-0178, (R)-4-chloro-5-(3-((6-(3,5-dimethylisoxazol-4-yl)pyrimidin-4-yl)oxy)pyrrolidin-1-yl)-2-(2-hydroxyethyl)pyridazin-3(2H)-one] |
| 0.001 to 10 | 0.001 to 10 | Cc1noc(C)c1-c1ccnc(O[C@H]2CN(c3cn[nH]c(=O)c3Cl)C[C@@H]2F)c1 [P-0180, 4-chloro-5-((3S,4S)-3-((4-(3,5-dimethylisoxazol-4-yl)pyridin-2-yl)oxy)-4-fluoropyrrolidin-1-yl)pyridazin-3(2H)-one] |
| 0.001 to 10 | 0.001 to 10 | Cc1nn(C)c(C)c1-c1cc(O[C@@H]2CCN(c3cn[nH]c(=O)c3Cl)C2)ncn1 [P-0181, (R)-4-chloro-5-(3-((6-(1,3,5-trimethyl-1H-pyrazol-4-yl)pyrimidin-4-yl)oxy)pyrrolidm-1-yl)pyridazin-3(2H)-one] |
| 0.001 to 10 | 0.001 to 10 | Cc1noc(C)c1-c1cc(O[C@@H]2CCN(c3cn[nH]c(=O)c3Cl)C2)ncn1 [P-0182, (R)-4-chloro-5-(3-((6-(3,5-dimethylisoxazol-4-yl)pyrimidin-4-yl)oxy)pyrrolidin-1-yl)pyridazin-3(2H)-one] |
| 0.001 to 10 | 0.001 to 10 | Cc1nn(CC2CCC2)c(C)c1-c1cc(F)nc(O[C@@H]2CCN(c3cn[nH]c(=O)c3Cl)C2)c1 [P-0183, (R)-4-chloro-5-(3-((4-(1-(cyclobutylmethyl)-3,5-dimethyl-1H-pyrazol-4-yl)-6-fluoropyridin-2-yl)oxy)pyrrolidin-1-yl)pyridazin-3(2H)-one] |
| 0.001 to 10 | 0.001 to 10 | Cc1nn(CC2(C)COC2)c(C)c1-c1cc(F)nc(O[C@@H]2CCN(c3cn[nH]c(=O)c3Cl)C2)c1 [P-0184, (R)-4-chloro-5-(3-((4-(3,5-dimethyl-1-((3-methyloxetan-3-yl)methyl)-1H-pyrazol-4-yl)-6-fluoropyridin-2-yl)oxy)pyrrolidin-1-yl)pyridazin-3(2H)-one] |
| 0.001 to 10 | 0.001 to 10 | Cc1nn(CC(C)(CO)CCl)c(C)c1-c1cc(F)nc(O[C@@H]2CCN(c3cn[nH]c(=O)c3Cl)C2)c1 (stereo partly drawn) [P-0185, 4-chloro-5-((3R)-3-((4-(1-(3-chloro-2-(hydroxymethyl)-2-methylpropyl)-3,5-dimethyl-1H-pyrazol-4-yl)-6-fluoropyridin-2-yl)oxy)pyrrolidin-1-yl)pyridazin-3(2H)-one] |
| 0.001 to 10 | 0.001 to 10 | Cc1nn(CC(C)(C)O)c(C)c1-c1cc(F)nc(O[C@@H]2CCN(c3cn[nH]c(=O)c3Cl)C2)c1 [P-0186, (R)-4-chloro-5-(3-((6-fluoro-4-(1-(2-hydroxy-2-methylpropyl)-3,5-dimethyl-1H-pyrazol-4-yl)pyridin-2-yl)oxy)pyrrolidin-1-yl)pyridazin-3(2H)-one] |
| 0.001 to 10 | 0.001 to 10 | Cc1nn(CC2CC(F)(F)C2)c(C)c1-c1cc(F)nc(O[C@@H]2CCN(c3cn[nH]c(=O)c3Cl)C2)c1 [P-0187, (R)-4-chloro-5-(3-((4-(1-((3,3-difluorocyclobutyl)methyl)-3,5-dimethyl-1H-pyrazol-4-yl)-6-fluoropyridin-2-yl)oxy)pyrrolidin-1-yl)pyridazin-3(2H)-one] |
| 0.001 to 10 | 0.001 to 10 | Cc1noc(C)c1-c1cc(F)nc(O[C@H]2CN(c3cnn(CCO)c(=O)c3Cl)C[C@@H]2F)c1 [P-0188, 4-chloro-5-((3S,4S)-3-((4-(3,5-dimethylisoxazol-4-yl)-6-fluoropyridin-2-yl)oxy)-4-fluoropyrrolidin-1-yl)-2-(2-hydroxyethyl)pyridazin-3(2H)-one] |
| 0.001 to 10 | 0.001 to 10 | Cc1noc(C)c1-c1cc(F)nc(O[C@H]2CN(c3cn[nH]c(=O)c3Cl)C[C@@H]2F)c1 [P-0189, 4-chloro-5-((3S,4S)-3-((4-(3,5-dimethylisoxazol-4-yl)-6-fluoropyridin-2-yl)oxy)-4-fluoropyrrolidin-1-yl)pyridazin-3(2H)-one] |
| 0.001 to 10 | 0.001 to 10 | Cc1nn(C)c(C)c1-c1cc(F)nc(O[C@H]2CN(c3cnn(CCO)c(=O)c3Cl)C[C@@H]2F)c1 [P-0190, 4-chloro-5-((3S,4S)-3-fluoro-4-((6-fluoro-4-(1,3,5-trimethyl-1H-pyrazol-4-yl)pyridin-2-yl)oxy)pyrrolidin-1-yl)-2-(2-hydroxyethyl)pyridazin-3(2H)-one] |
| 0.001 to 10 | 0.001 to 10 | Cc1nn(C)c(C)c1-c1cc(F)nc(O[C@H]2CN(c3cn[nH]c(=O)c3Cl)C[C@@H]2F)c1 [P-0191, 4-chloro-5-((3S,4S)-3-fluoro-4-((6-fluoro-4-(1,3,5-trimethyl-1H-pyrazol-4-yl)pyridin-2-yl)oxy)pyrrolidin-1-yl)pyridazin-3(2H)-one] |
| 0.001 to 10 | 0.001 to 10 | Cc1nn(CCO)c(C)c1-c1cc(F)nc(O[C@@H]2CCN(c3cn[nH]c(=O)c3Cl)C2)c1 [P-0192, (R)-4-chloro-5-(3-((6-fluoro-4-(1-(2-hydroxyethyl)-3,5-dimethyl-1H-pyrazol-4-yl)pyridin-2-yl)oxy)pyrrolidin-1-yl)pyridazin-3(2H)-one] |
| 0.001 to 10 | 0.001 to 10 | Cc1n[nH]c(C)c1-c1cc(F)nc(O[C@@H]2CCN(c3cn[nH]c(=O)c3Cl)C2)c1 [P-0193, (R)-4-chloro-5-(3-((4-(3,5-dimethyl-1H-pyrazol-4-yl)-6-fluoropyridin-2-yl)oxy)pyrrolidin-1-yl)pyridazin-3(2H)-one] |
| 0.001 to 10 | 0.001 to 10 | Cc1c(-c2cc(F)nc(O[C@@H]3CCN(c4cn[nH]c(=O)c4Cl)C3)c2)cnn1C [P-0194, (R)-4-chloro-5-(3-((4-(1,5-dimethyl-1H-pyrazol-4-yl)-6-fluoropyridin-2-yl)oxy)pyrrolidin-1-yl)pyridazin-3(2H)-one] |
| 0.001 to 10 | 0.001 to 10 | Cc1noc(C)c1-c1cc(F)nc(O[C@@H]2CCN(c3cn[nH]c(=O)c3Cl)C2)c1 [P-0195, (R)-4-chloro-5-(3-((4-(3,5-dimethylisoxazol-4-yl)-6-fluoropyridin-2-yl)oxy)pyrrolidin-1-yl)pyridazin-3(2H)-one] |
| 0.001 to 10 | 0.001 to 10 | Cc1c(-c2cccc(O[C@@H]3CCN(c4cn[nH]c(=O)c4Cl)C3)c2)cnn1C [P-0196, (R)-4-chloro-5-(3-(3-(1,5-dimethyl-1H-pyrazol-4-yl)phenoxy)pyrrolidin-1-yl)pyridazin-3(2H)-one] |
| 0.001 to 10 | 0.001 to 10 | Cc1nn(C)cc1-c1cccc(O[C@@H]2CCN(c3cn[nH]c(=O)c3Cl)C2)c1 [P-0197, (R)-4-chloro-5-(3-(3-(1,3-dimethyl-1H-pyrazol-4-yl)phenoxy)pyrrolidin-1-yl)pyridazin-3(2H)-one] |
| 0.001 to 10 | 0.001 to 10 | Cc1nn(C)c(C)c1-c1cccc(O[C@@H]2CCN(c3cn[nH]c(=O)c3Cl)C2)c1 [P-0198, (R)-4-chloro-5-(3-(3-(1,3,5-trimethyl-1H-pyrazol-4-yl)phenoxy)pyrrolidin-1-yl)pyridazin-3(2H)-one] |
| 0.001 to 10 | 0.001 to 10 | Cc1nn(C)c(C)c1-c1cc(F)nc(O[C@@H]2CCN(c3cnn(CCO)c(=O)c3Cl)C2)c1 [P-0199, (R)-4-chloro-5 (3-((6-fluoro-4-(1,3,5-trimethyl-1H-pyrazol-4-yl)pyridin-2-yl)oxy)pyrrolidin-1-yl)-2-(2-hydroxyethyl)pyridazin-3(2H)-one] |
| 0.001 to 10 | 0.001 to 10 | Cc1nn(C)c(C)c1-c1cc(F)nc(O[C@@H]2CCN(c3cn[nH]c(=O)c3Cl)C2)c1 [P-0200, (R)-4-chloro-5-(3-((6-fluoro-4-(1,3,5-trimethyl-1H-pyrazol-4-yl)pyridin-2-yl)oxy)pyrrolidin-1-yl)pyridazin-3(2H)-one] |
| 0.001 to 10 | 0.001 to 10 | Cc1noc(C)c1-c1ccnc(O[C@@H]2CCN(c3cn[nH]c(=O)c3Cl)C2)c1 [P-0201, (R)-4-chloro-5-(3-((4-(3,5-dimethylisoxazol-4-yl)pyridin-2-yl)oxy)pyrrolidin-1-yl)pyridazin-3(2H)-one] |
| 0.001 to 10 | 0.001 to 10 | CCNS(=O)(=O)c1ccc(-c2ccnc(O[C@@H]3CCN(c4cn[nH]c(=O)c4Cl)C3)c2)c(Cl)c1 [P-0202, (R)-3-chloro-4-(2-((1-(5-chloro-6-oxo-1,6-dihydropyridazin-4-yl)pyrrolidin-3-yl)oxy)pyridin-4-yl)-N-ethylbenzenesulfonamide] |
| 0.001 to 10 | 0.001 to 10 | Cc1nn(C)c(C)c1-c1ccnc(O[C@@H]2CCN(c3cn[nH]c(=O)c3Cl)C2)c1 [P-0203, (R)-4-chloro-5-(3-((4-(1,3,5-trimethyl-1H-pyrazol-4-yl)pyridin-2-yl)oxy)pyrrolidin-1-yl)pyridazin-3(2H)-one] |
